Results published in PubChem BioAssay (NCI).
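Following 48 hours of exposure in 96-well plates, responses at five concentrations were used to interpolate endpoints linearly. GI50 marks 50% less growth. TGI: total growth inhibition.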

What was measured:
Assay in all cases: NCI tumour cell line growth inhibition, 48 h
UACC-62 melanoma = system: UACC-62 melanoma
OVCAR-8 ovarian = system: OVCAR-8 ovarian
RPMI-8226 leukemia = system: RPMI-8226 leukemia
SNB-75 CNS = system: SNB-75 CNS
SN12C renal = system: SN12C renal
IGROV1 ovarian = system: IGROV1 ovarian
SK-MEL-5 melanoma = system: SK-MEL-5 melanoma
SK-OV-3 ovarian = system: SK-OV-3 ovarian
K-562 leukemia = system: K-562 leukemia
SR leukemia = system: SR leukemia

| SMILES | TGI (UACC-62 melanoma) [µM] | TGI (OVCAR-8 ovarian) [µM] | TGI (RPMI-8226 leukemia) [µM] | TGI (SNB-75 CNS) [µM] | TGI (SN12C renal) [µM] | TGI (IGROV1 ovarian) [µM] | TGI (SK-MEL-5 melanoma) [µM] | TGI (SK-OV-3 ovarian) [µM] | TGI (K-562 leukemia) [µM] | TGI (SR leukemia) [µM] | GI50 (UACC-62 melanoma) [µM] | GI50 (OVCAR-8 ovarian) [µM] | GI50 (RPMI-8226 leukemia) [µM] | GI50 (SNB-75 CNS) [µM] | GI50 (SN12C renal) [µM] | GI50 (IGROV1 ovarian) [µM] | GI50 (SK-MEL-5 melanoma) [µM] | GI50 (SK-OV-3 ovarian) [µM] | GI50 (K-562 leukemia) [µM] | GI50 (SR leukemia) [µM] |
| --- | --- | --- | --- | --- | --- | --- | --- | --- | --- | --- | --- | --- | --- | --- | --- | --- | --- | --- | --- | --- |
| Cc1cccc(C)c1N1C(=O)C(=O)C(c2nc3ccccc3s2)/C(=N/NC(=O)c2ccccc2O)C1=O (centres undefined) | 8.31 | > 100 | > 69.2 | 69.5 | > 100 | > 82.2 | > 53.7 | > 100 | > 57 | 86.3 | – | – | – | – | – | – | – | – | – | – |
| CCOc1ccc(NCC2CC/C(=C\c3ccccc3OC)C2=O)cc1 (centres undefined) | 25.5 | 13 | 3.91 | 31.1 | 19.4 | 25.5 | 30.3 | 31.1 | > 27.5 | – | – | – | – | – | – | – | – | – | – | – |
| O=C(c1ccccc1)c1c(C(F)(F)F)n([O-])c2cc(C(F)(F)F)ccc2[n+]1=O | 3.32 | 5.46 | 3.75 | 3.05 | 4.4 | 0.489 | 3.24 | 3.21 | 0.559 | 3.53 | 1.73 | 1.87 | 1.49 | 1.63 | 1.83 | 0.207 | 1.69 | 1.77 | 0.231 | 1.17 |
| O=C1C(=O)c2ccccc2C(O)=C1CCCc1ccc(C2CCCCC2)cc1 | 19.4 | > 100 | 23.7 | 91 | > 100 | – | 13.9 | 59.7 | > 100 | 31 | 0.816 | 6.01 | 1.8 | 5.17 | 6.35 | – | 1.52 | 10.9 | 3.28 | 2.44 |
| O=S(=O)(N=NC=C1c2ccccc2N(O)c2ccccc21)c1ccc(Cl)cc1 | > 100 | > 100 | > 100 | 78.2 | > 100 | > 100 | > 100 | > 100 | > 100 | – | – | – | – | – | – | – | – | – | – | – |
| COC(=O)/C(C#N)=C(\N)C(Cl)(Cl)Cl | 2.86 | 4.68 | 6.75 | 16 | 12.7 | – | 3.82 | 5.3 | 4.51 | 5.37 | – | – | – | – | – | – | – | – | – | – |
| COC1=CC(c2ccc[nH]2)=N/C1=C\c1[nH]c(C)c(CC(=O)OCc2ccccc2)c1C | – | 1.27 | – | 0.777 | – | 1.34 | – | 2.77 | – | – | – | 0.362 | – | 0.217 | – | 0.325 | – | 0.457 | – | – |
| C=CCC1(C(=O)OC(C)(C)C)C(OC)=C(C(=O)OC(C)(C)C)C2C1C(C(=O)OC(C)(C)C)=C(OC)C2(CC=C)C(=O)OC(C)(C)C (centres undefined) | > 100 | > 100 | > 100 | > 100 | > 100 | > 100 | – | > 100 | > 100 | > 100 | – | – | – | – | – | – | – | – | – | – |
| CC(C)=CC(=O)N[C@H]1CC[C@]2(C)C3CC[C@]4(C)C(C(C)N(C)C)=CCC4C3CCC2[C@H]1O (some centres undefined) | 3.77 | > 51.8 | 9.3 | 21.8 | 19.1 | 25.3 | 2.95 | 24.6 | 4.52 | – | 1.95 | 13.9 | 2.41 | 8.76 | 5.27 | 8.5 | 1.48 | 12.1 | 1.58 | – |
| N#C/C(=N\Nc1ccccc1)C(=O)Nc1cc(-c2ccccc2)nn1-c1ccccc1 | > 100 | > 100 | 39.2 | – | > 100 | > 100 | 4.86 | – | > 100 | > 100 | 1.65 | 3.25 | 1.8 | – | 2.74 | 4.49 | 1.54 | – | 2.43 | 5.19 |
| Cc1ccc2nc3cc(C)c(=O)cc-3sc2c1 | 82.8 | > 100 | – | 84.9 | > 100 | > 100 | > 100 | > 100 | > 100 | > 100 | – | – | – | – | – | – | – | – | – | – |
| CCCN(CCC)C(=O)c1nc(N)nc(-c2ccc(OC)cc2)c1-c1ccc(OC)cc1 | > 100 | > 100 | > 100 | > 100 | > 100 | > 100 | > 100 | > 100 | > 100 | – | – | – | – | – | – | – | – | – | – | – |
| Cc1nc(/C=C2\C(=O)C=Cc3ccccc32)c(O)o1 | > 100 | > 100 | > 100 | 40.4 | > 100 | > 100 | > 100 | – | > 100 | – | – | – | – | – | – | – | – | – | – | – |
| CC(=O)NNc1nc(C)c(C(=O)/C=C/c2ccc(Cl)cc2)s1 | > 100 | > 100 | > 100 | > 100 | – | > 100 | > 100 | > 100 | > 100 | – | – | – | – | – | – | – | – | – | – | – |
| CC(C(=O)c1ccccc1)C1(O)C(=O)Nc2ccc(Cl)cc21 (centres undefined) | > 100 | > 100 | > 100 | > 100 | > 100 | > 100 | – | > 100 | – | – | – | – | – | – | – | – | – | – | – | – |
| C#CC1(O)CCC2[C@@H]3CCc4cc(Oc5nc(F)nc(-c6c7ccccc7c(SCC)n6CCC)n5)ccc4C3CC[C@@]21C (some centres undefined) | > 100 | > 100 | > 100 | – | – | > 100 | > 100 | > 100 | > 100 | > 100 | – | – | – | – | – | – | – | – | – | – |
| CC(=O)OC12c3ccccc3-c3ccccc3C1C(C(=O)O)C2C(=O)O (centres undefined) | – | > 10 | > 10 | – | > 10 | > 10 | > 10 | > 10 | > 10 | > 10 | – | – | – | – | – | – | – | – | – | – |
| C[C@]12CC[C@H]3[C@@H](CC4SC(N)=NC45C/C(=N/NC(N)=O)CC[C@]35C)[C@@H]1CCC2=O (some centres undefined) | 3.13 | 3.63 | 1.37 | 3.5 | 3.45 | 3.43 | 2.97 | 22.3 | 5.08 | – | 1.63 | 1.85 | 0.3 | 1.58 | 1.89 | 1.78 | 1.57 | 6.21 | 1.81 | – |
| O=C(Nc1ccccc1-c1nn(CN2CCNCC2)c(=S)n(CN2CCNCC2)c1=O)C(F)(F)F | 32.5 | 53.5 | – | 52.9 | 46.1 | 46.5 | 31 | 51.4 | 59 | – | – | – | – | – | – | – | – | – | – | – |
